Numbers after ± are expanded uncertainties.

This series is described as follows: molar enthalpy of vaporization or sublimation. As to conditions: 298.15 K, Liquid.

Turning to `CC(=O)c1sccc1C` [2-acetyl-3-methylthiophene], the molar enthalpy (Vacuum sublimation drop method) worked out at 13.6 ± 1.15 kcal/mol.
With `CC(=O)c1cc(C)cs1` [2-acetyl-4-methylthiophene], the molar enthalpy (Flow calorimetry) is 15.1 ± 1.24 kcal/mol.
As to `CC(=O)c1ccc(C)s1` [2-acetyl-5-methylthiophene], where the note is “Flow calorimetry”, the molar enthalpy worked out at 14.8 ± 1.24 kcal/mol.
